Measurements from patent US11076595B2, “1-(n,n-disubstituted carbamoyl) 4-(substituted sulfonyl)triazolin-5-one derivative, 4-(n,n-disubstituted carbamoyl) 1-(substituted sulfonyl)triazolin-5-one derivative, and herbicide containing said derivative as active ingredient” (HOKKO CHEMICAL INDUSTRY CO., LTD., priority 2017, dated 2021).

Legend:
Format in all cases: in vivo
[1] = test system: Lindernia pyxidaria; test: Test Example 11: herbicidal effect test by soil treatment in paddy field; details: 120 g/10a active ingredient, 14 days after treatment
Outline: (§1)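 Weed suppression rate (%) was calculated as (1 − mean treated dry weight / mean untreated dry weight) × 100 at 14 days after treatment, two replicates per plot. Seeds were sown at 0–1 cm in flooded (about 3 cm) puddled paddy soil and treated immediately at 120 g active ingredient per 10 are.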

[2] = test system: Scirpus juncoides; test: as above; details: 120 g/10a active ingredient, 14 days after treatment
Outline: as §1

[3] = test system: Monochoria vaginalis; test: as above; details: 120 g/10a active ingredient, 14 days after treatment
Outline: as §1

[4] = test system: Echinochloa crus-galli; test: as above; details: 120 g/10a active ingredient, 14 days after treatment
Outline: as §1

[5] = test system: Chenopodium album; test: Test Example 14: herbicidal effect test by foliage treatment in upland field; details: 7 days after sowing, 120 g/10a, 14 days after treatment
Outline: (§2)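 Post-sowing spray at day 7, 120 g a.i./10 are in 100 L water/10 are; alluvial soil pots, duplicate plots; endpoint day 14, % suppression from dry weight relative to untreated.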

[6] = test system: crabgrass; test: as above; details: 7 days after sowing, 120 g/10a, 14 days after treatment
Outline: as §2

[7] = test system: Amaranthus viridis; test: Test Example 13: herbicidal effect test by soil treatment in upland field; details: 120 g/10a, 14 days after treatment
Outline: (§3)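 Suppression rate (%) is calculated from mean plant dry weight in treated versus untreated plots, 14 days after treatment, with duplicate plots per concentration. Seeds (20 per species) are mixed into the surface centimetre of alluvial soil, and the diluted emulsifiable concentrate is sprayed onto the soil the following day at 120 g a.i. per 10 are.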

[8] = test system: Chenopodium album; test: as above; details: 120 g/10a, 14 days after treatment
Outline: as §3

[9] = test system: crabgrass; test: as above; details: 120 g/10a, 14 days after treatment
Outline: as §3

[10] = test system: Echinochloa crus-galli; test: as above; details: 120 g/10a, 14 days after treatment
Outline: as §3

[11] = test system: Amaranthus viridis; test: Test Example 14: herbicidal effect test by foliage treatment in upland field; details: 7 days after sowing, 120 g/10a, 14 days after treatment
Outline: as §2

[12] = test system: Echinochloa crus-galli; test: as above; details: 7 days after sowing, 120 g/10a, 14 days after treatment
Outline: as §2

[13] = test system: Lindernia pyxidaria; test: Test Example 12: herbicidal effect test by treatment during growing period in paddy field; details: 120 g/10a; treatment seven days after sowing in flooded paddy pot; assessed 14 days after treatment
Outline: (§4)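 Puddled paddy soil in Wagner pots, 30 seeds per species sown 0-1 cm deep, flooded to about 3 cm in a greenhouse. Seven days after sowing, water-diluted emulsifiable concentrate was dripped in at 120 g active ingredient per 10 are. Suppression (%) from dry weight versus untreated at 14 days, two replicates.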

[14] = test system: Scirpus juncoides; test: as above; details: 120 g/10a; treatment seven days after sowing in flooded paddy pot; assessed 14 days after treatment
Outline: as §4

[15] = test system: Monochoria vaginalis; test: as above; details: 120 g/10a; treatment seven days after sowing in flooded paddy pot; assessed 14 days after treatment
Outline: as §4

[16] = test system: Echinochloa crus-galli; test: as above; details: 120 g/10a; treatment seven days after sowing in flooded paddy pot; assessed 14 days after treatment
Outline: as §4

Structure (SMILES) | Weed suppression rate (%) Lindemia pyxidaria [1] [%] | Weed suppression rate (%) Scirpus juncoides [2] [%] | Weed suppression rate (%) Monochoria vaginalis [3] [%] | Weed suppression rate (%) Echinochloa crus-galli [4] [%] | herbicidal effect, Chenopodium album [5] [%] | herbicidal effect, Crabgrass [6] [%] | herbicidal effect, Amaranthus viridis [7] [%] | herbicidal effect, Chenopodium album [8] [%] | herbicidal effect, Crabgrass [9] [%] | herbicidal effect, Echinochloa crus-galli [10] [%] | herbicidal effect, Amaranthus viridis [11] [%] | herbicidal effect, Echinochloa crus-galli [12] [%] | Weed suppression rate (%) Lindemia pyxidaria [13] [%] | Weed suppression rate (%) Scirpus juncoides [14] [%] | Weed suppression rate (%) Monochoria vaginalis [15] [%] | Weed suppression rate (%) Echinochloa crus-galli [16] [%]
CC(C)N(C(=O)n1cnn(S(=O)(=O)C2CCCCC2)c1=O)c1c(F)cccc1F [Compound 11-296] | 100 | 100 | 70 | 100 | 70 | 100 | 60 | 70 | 100 | 100 | 90 | 100 | 80 | 90 | 90 | 100
CC(C)N(C(=O)n1cnn(S(C)(=O)=O)c1=O)c1ccccc1 [Compound 11-1] | 80 | 90 | 80 | 90 | 80 | 90 | 90 | 80 | 90 | 80 | 90 | 80 | 80 | 90 | 80 | 90
Cc1ccc(N(C(=O)n2cnn(S(=O)(=O)C(C)C)c2=O)C(C)C)c(F)c1 [Compound 11-73] | 80 | 90 | 80 | 90 | 80 | 90 | 90 | 80 | 90 | 80 | 90 | 80 | 80 | 90 | 80 | 90
CC(C)N(C(=O)n1cnn(S(=O)(=O)C2CCOCC2)c1=O)c1ccc(F)cc1F [Compound 11-1109] | 80 | 90 | 80 | 90 | 80 | 90 | 100 | 100 | 100 | 100 | 90 | 80 | 80 | 90 | 80 | 90
CC(C)N(C(=O)n1cnn(S(=O)(=O)C(C)C)c1=O)c1ccccc1 [Compound 11-48] | 80 | 90 | 80 | 90 | 70 | 100 | 90 | 80 | 90 | 80 | 40 | 90 | 70 | 70 | 90 | 90
